According to PubChem BioAssay (NCI):
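Cultured in 96-well plates, cells were exposed to test compound for 48 hours across five concentrations. Here, GI50 denotes the concentration required for 50% inhibition of growth. TGI: total growth inhibition.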

Tests used:
Assay in all cases: DTP human tumour cell line panel, 48 h
786-0 renal = system: 786-0 renal
A549 NSCLC = system: A549 NSCLC
CAKI-1 renal = system: CAKI-1 renal
CCRF-CEM leukemia = system: CCRF-CEM leukemia
KM12 colon = system: KM12 colon
M14 melanoma = system: M14 melanoma
NCI/ADR-RES ovarian = system: NCI/ADR-RES ovarian
RPMI-8226 leukemia = system: RPMI-8226 leukemia
SK-OV-3 ovarian = system: SK-OV-3 ovarian
TK-10 renal = system: TK-10 renal

Compound	GI50 (786-0 renal)	TGI (786-0 renal)	GI50 (A549 NSCLC)	TGI (A549 NSCLC)	GI50 (CAKI-1 renal)	TGI (CAKI-1 renal)	GI50 (CCRF-CEM leukemia)	TGI (CCRF-CEM leukemia)	GI50 (KM12 colon)	TGI (KM12 colon)	GI50 (M14 melanoma)	TGI (M14 melanoma)	GI50 (NCI/ADR-RES ovarian)	TGI (NCI/ADR-RES ovarian)	GI50 (RPMI-8226 leukemia)	TGI (RPMI-8226 leukemia)	GI50 (SK-OV-3 ovarian)	TGI (SK-OV-3 ovarian)	GI50 (TK-10 renal)	TGI (TK-10 renal)
O=C(Nc1n[nH]c2cc(-c3cc(F)ccc3F)ccc12)C1CC1	> 25 µM	> 25 µM	11.4 µM	> 25 µM	> 20.9 µM	> 25 µM	10.5 µM	> 25 µM	8.08 µM	> 25 µM	13.8 µM	> 25 µM	9.31 µM	> 25 µM	13.1 µM	> 25 µM	11.1 µM	> 25 µM	> 25 µM	> 25 µM
CC1CCC2C(C)C(=O)OC2C2(C)C(=O)C=CC12 (stereo not drawn)		> 10 µM		> 10 µM		> 10 µM		> 10 µM		> 10 µM		> 10 µM		> 10 µM		> 10 µM		> 10 µM		> 10 µM
O=C(Nc1ccc(Cl)cc1C(F)(F)F)C(=O)Nn1c(=S)[nH]c2ccccc2c1=O		> 100 µM		> 100 µM		> 100 µM		> 100 µM		> 100 µM		> 100 µM		> 100 µM		> 100 µM		> 100 µM		> 100 µM
O=c1[nH]c(C2CCCN2)nc2c1oc1ccc(Cl)cc12 (stereo not drawn)	> 100 µM	> 100 µM	> 100 µM	> 100 µM	> 100 µM	> 100 µM	68.1 µM	> 100 µM	> 100 µM	> 100 µM	57.1 µM	> 100 µM	> 100 µM	> 100 µM	> 100 µM	> 100 µM	> 100 µM	> 100 µM	> 100 µM	> 100 µM
COC1=CC(c2ccc[nH]2)=N/C1=C\c1[nH]c(C)c(C(=O)CCCCCCCCC(=O)O[C@H]2CC[C@H]3C4CCc5cc(O)ccc5C4CC[C@]23C)c1C (stereo partly drawn)	0.787 µM	> 12.8 µM	1.11 µM	8.88 µM	1.1 µM	> 28.4 µM	0.117 µM	> 50 µM	0.379 µM	> 50 µM	0.235 µM	2.23 µM	25.9 µM	> 50 µM	1.63 µM	> 50 µM	5.02 µM	> 50 µM	0.861 µM	> 50 µM
COc1ccc2[nH]c(C(=O)N3CCN(C(=O)OCc4ccc5c(Cl)cc(Cl)c(O)c5n4)CC3)cc2c1	1.37 µM	2.82 µM	1.55 µM	3.39 µM	0.357 µM	1.65 µM	0.275 µM	1.67 µM	1.69 µM	3.68 µM	1.15 µM	2.6 µM	1.83 µM	6.37 µM	0.281 µM	0.962 µM	5.36 µM	17.6 µM	1.42 µM	2.72 µM
Clc1ccccc1C(Nc1cnccn1)Nc1cnccn1		> 100 µM		> 100 µM		> 100 µM		> 100 µM		> 100 µM		> 100 µM		> 100 µM		> 100 µM		> 100 µM		> 100 µM
O=C1c2cccc3cccc(c23)C(=O)N1CCCCCN1CCN(CCN=c2cc3n(-c4ccc(Cl)cc4)c4ccccc4nc-3cc2Nc2ccc(Cl)cc2)CC1	9.6 µM	30.7 µM	25.9 µM	> 50 µM	6.33 µM	20.5 µM	7.38 µM	25.2 µM	11.9 µM	46.3 µM	7.53 µM	16.5 µM	6.95 µM	19.4 µM	5.22 µM	16.9 µM	> 50 µM	> 50 µM	25 µM	> 50 µM
CCCCCCCC/C=C/CCCCCCCC1=NC(C)(C)CN1C(C)(C)CO	1.64 µM	3.12 µM	1.87 µM	3.82 µM	1.39 µM	2.88 µM	3.04 µM	11.4 µM	1.97 µM	3.45 µM	1.78 µM	3.22 µM	2.1 µM	4.81 µM	2.55 µM	5.68 µM	14.4 µM	29.3 µM	2.61 µM	7.46 µM
CCCC(=O)O[C@]1(C)CC[C@@H]2[C@H]3[C@@H]1[C@@H]1C[C@@](C)(O)[C@H](OC)CC[C@](C)(OC(=O)[C@@H]2C)[C@H]3O1	> 100 µM	> 100 µM	40.6 µM	> 100 µM	18.6 µM	39.8 µM	2.35 µM	13.9 µM	19.4 µM	44.7 µM	28.9 µM	> 100 µM	67.1 µM	> 100 µM	13.8 µM	26.8 µM	31 µM	97.1 µM	28.8 µM	87.4 µM
O=C1/C(=C/c2ccccc2)Oc2cc(O)ccc21		> 100 µM		> 100 µM		> 100 µM		> 100 µM		> 100 µM		> 100 µM		> 100 µM		> 100 µM		> 100 µM		> 100 µM
O=C1C(=O)c2c(nc3ccc(C(F)(F)F)cn23)-c2ccccc21	0.396 µM	0.835 µM	0.513 µM	1.23 µM	0.162 µM	0.297 µM	0.39 µM		0.288 µM	0.995 µM	0.18 µM	0.329 µM	0.23 µM	0.581 µM	0.169 µM	0.53 µM	0.551 µM	1.12 µM	0.738 µM	1.24 µM
Cn1c(I)c(C#C[Si](C)(C)C)c(=O)n(C(=O)c2ccccc2)c1=O	3.49 µM	11.7 µM	5.63 µM	24.8 µM	2.56 µM	6.85 µM	0.432 µM		12.1 µM	27.8 µM	1.99 µM	4.16 µM	22.4 µM	48.8 µM	2.02 µM	> 20.4 µM	0.529 µM	21.7 µM	3.81 µM	14 µM
CN1CCN(C2=NC(=O)/C(=C\c3ccc(N(C)C)cc3)S2)CC1	> 100 µM	> 100 µM	> 100 µM	> 100 µM	> 100 µM	> 100 µM	38.4 µM	> 100 µM	> 100 µM	> 100 µM	3.79 µM	> 100 µM	> 100 µM	> 100 µM	32.5 µM	> 100 µM	> 100 µM	> 100 µM	> 100 µM	> 100 µM
